We go through one substance from publication PMC5845004, “Novel (p)ppGpp Binding and Metabolizing Proteins of Escherichia coli” (mBio, 2018).

Broadly, the IC50 is the concentration needed to halve the response being measured. The term Ki denotes the dissociation constant of the complex between target and ligand, obtained from inhibition or displacement.

Test [1] has as its target T1, Apt (Escherichia coli, UniProt P69503). The experiment in a line: DRaCALA binding, purified Apt. To be noted: up to 150 µM Apt. Set-up: species or system E. coli.
For test [2], the target named is T2, PurA (Escherichia coli, UniProt P0A7D4). As to the kind of experiment: DRaCALA binding, purified PurA. Set-up: species or system E. coli. To be noted: PurA up to 150 µM.
Protocol: (§4) For Kd measurements by DRaCALA, 2-fold serial dilutions from the highest possible concentrations of each purified protein were prepared in binding buffer B, and approximately 2 nM concentrations of α-^32P-labeled ppGpp, pppGpp, GTP, and GDP were added. The mixtures were incubated for 5 min at RT before spotting of 2 µl of the reaction mixtures onto nitrocellulose membranes. The fractions of bound ligand and the apparent Kd values were calculated as previously described ([37]). For competition assays, purified proteins at the specified concentrations were incubated with 2 nM [α-^32P]ppGpp or [α-^32P]pppGpp in the presence of 100 μM competitor nucleotides in binding buffer B. The reaction mixtures were incubated for 5 min at RT, 2 µl was spotted onto nitrocellulose membranes, and the values corresponding to the bound fractions were determined. EDTA was added at excess concentrations as specified for each case.
In test [3] the target is T3, YgdH (Escherichia coli, UniProt P0ADR8). The experiment in a line: DRaCALA binding and Kd determination, purified YgdH. Set-up: species or system E. coli. The following applies: 20 µM YgdH, binding buffer with 10 mM MgCl2, no EDTA.
Protocol: For Kd measurements by DRaCALA, 2-fold serial dilutions from the highest possible concentrations of each purified protein were prepared in binding buffer B, and approximately 2 nM concentrations of α-^32P-labeled ppGpp, pppGpp, GTP, and GDP were added. The mixtures were incubated for 5 min at RT before spotting of 2 µl of the reaction mixtures onto nitrocellulose membranes. […] For competition assays, purified proteins at the specified concentrations were incubated with 2 nM [α-^32P]ppGpp or [α-^32P]pppGpp in the presence of 100 μM competitor nucleotides in binding buffer B. The reaction mixtures were incubated for 5 min at RT, 2 µl was spotted onto nitrocellulose membranes, and the values corresponding to the bound fractions were determined. EDTA was added at excess concentrations as specified for each case.
The next test has as its target Gpt (Escherichia coli, UniProt P0A9M5). As to the kind of experiment: DRaCALA competition assay, Gpt. It is filed as binding, E. coli. The following applies: 20 µM Gpt, 2 nM hot ppGpp, 100 µM cold competitor.
A further test deals with Hpt (Escherichia coli, UniProt P0A9M2). As to the kind of experiment: DRaCALA competition assay, Hpt. It is filed as binding, E. coli. The following applies: 20 µM Hpt, 2 nM hot ppGpp, 100 µM cold competitor.
Test [4] deals with T3, YgdH. The experiment in a line: DRaCALA competition assay, YgdH. To be noted: 100 µM cold competitor; data not shown. It is filed as binding, E. coli.
For a further test, the target named is MutT (Escherichia coli, UniProt P08337). The experiment in a line: In vitro cleavage assay (TLC), MutT. It is filed as biochemical, E. coli. The following applies: purified MutT, buffer B with 10 mM MgCl2, TLC. On the procedure:
(§1) The purified His6-MutT and His6-NudG proteins were tested for their relative levels of cleavage of ppGpp compared to those seen with their native substrates. For this, a 1 μM concentration of each protein and a 10 nM concentration of [α-^32P]ppGpp were used together with 100 μM concentrations of cold competitors [ppGpp, GTP, ATP, 8-oxo-(d)GTP, 2-hydroxyl-(d)ATP] or 50 mM EDTA in buffer B. The samples were incubated at 30°C for 10 min and for 1 h before the reactions were stopped by adding 50 mM EDTA. The cleavage products were resolved by TLC as described above. The purified His6-NadR and His6-TrmE proteins were tested for their cleavage of both GTP and ppGpp. For cleavage of GTP, 10 μM concentrations of His6-MBP, His6-TrmE, and 20 μM His6-NadR proteins were used with 2 nM [α-^32P]GTP and 100 μM cold GTP in buffer B. For cleavage of ppGpp, 10 μM concentrations of His6-TrmE, His6-MBP, and His6-NadR proteins were used with 10 nM [α-^32P]ppGpp in buffer B. Of note, for His6-TrmE, another reaction was also performed in buffer B supplemented with 100 mM KCl. The reactions were performed at RT for 10 min and were stopped by adding 17% formic acid. The cleavage products were resolved by TLC as described above.
(§2) A 20 μM concentration of each of purified proteins MutT, NudG, NadR, TrmE, and MBP (as a negative control) was incubated with 100 μM ppGpp in buffer B (containing 40 mM Tris [pH 7.5], 100 mM NaCl, and 10 mM MgCl2) for 20 min at room temperature. Samples were snap-frozen on dry ice and analyzed with UPLC-MS afterward. All samples and buffers were stored at −80°C, thawed on ice, and kept at 4°C during analysis. For the analysis, a UPLC-quadrupole time of flight (UPLC-qTOF) method (Waters) was used. Analysis conditions were as follows: column, zic-HILIC (Merck Millipore) (150 by 2.1 mm, […], gradient elution, flow rate set to 0.3 ml/min); mobile phase A, 10 mM ammonium acetate (pH 5); mobile phase B, 90% acetonitrile with 10 mM ammonium acetate (pH 5). The gradient was set up as follows: min 0 to 2, 80% B; min 2 to 16, 80% B to 50% B; hold until min 20; injection volume, 4 µl. The detection conditions were as follows: photodiode array detector (PDA), […] (evaluated at 260 nm); MS, ionization; electrospray ionization (ESI+), scan, 200 to 800 m/z with lock mass correction. Analytes were identified by their accurate mass and retention time data for a known standard dissolved in used buffer (for the chemicals of the same nominal masses). These standards were either synthesized and their structures confirmed by nuclear magnetic resonance (NMR) (for ppGp, pGpp, and pGp) or purchased (ppGpp was purchased from Jena Biocsience and GTP from Sigma-Aldrich).

Another test deals with T4, NudG (Escherichia coli, UniProt P77788).
T4 construct: expressed in transfected cells; host or cells: E. coli ASKA collection strain, IPTG-induced, whole-cell lysate
The experiment in a line: In vitro cleavage assay (TLC), NudG. The following applies: purified NudG, buffer B with 10 mM MgCl2, TLC. It is filed as biochemical, E. coli. On the procedure: as §1, §2

For a further test, the target named is TrmE (Escherichia coli, UniProt P25522). The experiment in a line: In vitro cleavage assay (TLC), TrmE. To be noted: 10 µM TrmE, buffer B, with 100 mM potassium where stated, 10 min. It is filed as biochemical, E. coli. On the procedure: as §1
A 20 μM concentration of each of purified proteins MutT, NudG, NadR, TrmE, and MBP (as a negative control) was incubated with 100 μM ppGpp in buffer B (containing 40 mM Tris [pH 7.5], 100 mM NaCl, and 10 mM MgCl2) for 20 min at room temperature. Samples were snap-frozen on dry ice and analyzed with UPLC-MS afterward. All samples and buffers were stored at −80°C, thawed on ice, and kept at 4°C during analysis. For the analysis, a UPLC-quadrupole time of flight (UPLC-qTOF) method (Waters) was used. […] The detection conditions were as follows: photodiode array detector (PDA), […] (evaluated at 260 nm); MS, ionization; electrospray ionization (ESI+), scan, 200 to 800 m/z with lock mass correction. […]

A further test addresses NadR (Escherichia coli, UniProt P27278). As to the kind of experiment: In vitro cleavage assay (TLC), NadR. The following applies: 10-20 µM NadR, buffer B with 100 mM NaCl, 10 min. It is filed as biochemical, E. coli. On the procedure: The purified His6-MutT and His6-NudG proteins were tested for their relative levels of cleavage of ppGpp compared to those seen with their native substrates. For this, a 1 μM concentration of each protein and a 10 nM concentration of [α-^32P]ppGpp were used together with 100 μM concentrations of cold competitors [ppGpp, GTP, ATP, 8-oxo-(d)GTP, 2-hydroxyl-(d)ATP] or 50 mM EDTA in buffer B. The samples were incubated at 30°C for 10 min and for 1 h before the reactions were stopped by adding 50 mM EDTA. The cleavage products were resolved by TLC as described above. The purified His6-NadR and His6-TrmE proteins were tested for their cleavage of both GTP and ppGpp. […]
A 20 μM concentration of each of purified proteins MutT, NudG, NadR, TrmE, and MBP (as a negative control) was incubated with 100 μM ppGpp in buffer B (containing 40 mM Tris [pH 7.5], 100 mM NaCl, and 10 mM MgCl2) for 20 min at room temperature. Samples were snap-frozen on dry ice and analyzed with UPLC-MS afterward. […] The detection conditions were as follows: photodiode array detector (PDA), […] (evaluated at 260 nm); MS, ionization; electrospray ionization (ESI+), scan, 200 to 800 m/z with lock mass correction. […]

A further test deals with PhoA (Escherichia coli, UniProt P00634). As to the kind of experiment: Cleavage of (p)ppGpp by PhoA. It is filed as biochemical, E. coli. From the text:
(§3) Supplement mbo001183765st1.docx, table 1: Table S1. List of proteins that bind or cleave (p)ppGpp. | column: Binding (Kd or otherwise stated in µM) or cleavage of (p)ppGpp in E. coli

A further test has as its target T5, UshA (Escherichia coli, UniProt P07024).
T5 sequence (P07024 26-550): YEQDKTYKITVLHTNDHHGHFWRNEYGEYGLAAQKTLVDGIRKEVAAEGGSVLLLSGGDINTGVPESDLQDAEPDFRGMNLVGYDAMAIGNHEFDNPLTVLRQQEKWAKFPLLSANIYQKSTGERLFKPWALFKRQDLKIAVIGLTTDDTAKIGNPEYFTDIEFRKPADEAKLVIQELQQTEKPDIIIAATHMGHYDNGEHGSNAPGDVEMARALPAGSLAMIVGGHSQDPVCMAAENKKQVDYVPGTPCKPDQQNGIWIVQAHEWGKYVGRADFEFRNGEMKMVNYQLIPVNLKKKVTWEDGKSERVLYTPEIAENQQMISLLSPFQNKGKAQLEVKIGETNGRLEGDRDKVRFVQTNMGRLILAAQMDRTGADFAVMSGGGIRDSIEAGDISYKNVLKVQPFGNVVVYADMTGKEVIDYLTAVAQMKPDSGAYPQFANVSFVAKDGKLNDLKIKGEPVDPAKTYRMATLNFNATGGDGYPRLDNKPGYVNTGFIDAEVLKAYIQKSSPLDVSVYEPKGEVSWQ
The experiment in a line: Cleavage of (p)ppGpp by UshA. It is filed as biochemical, E. coli.
Text: as §3

The target in test [5] is T3, YgdH. As to the kind of experiment: TLC of YgdH binding reactions (degradation test). It is filed as biochemical, E. coli. To be noted: binding reactions analyzed by TLC.
In test [6] the target is T1, Apt. The following applies: ref Table S1 (2); cited from earlier work.
The target of another test is GuaB. Also on record: method as in ref 29, 31, 47 (Table S1 ref 5). The following applies: 47 (Table S1 ref 5); cited from earlier work.
The target of test [7] is T2, PurA. To be noted: cited from earlier work.
For test [8], the system named is DnaG. To be noted: ref Table S1 (12); cited from earlier work.
Test [9] relates to DnaG. Also on record: method as in Table S1 (13). To be noted: ref Table S1 (13); read-out: IC50, B. subtilis DnaG; cited from earlier work.
A further test deals with RNAP /DksA. Set-up: method as in Table S1 (14). The following applies: ref Table S1 (14); cited from earlier work.
The next test deals with YybT /GdpP. To be noted: other bacteria, cited from earlier work.
The next test deals with RelA. Also on record: method as in ref 36 (Table S1 ref 16). To be noted: ref 36 (Table S1 ref 16); cited from earlier work.

Entries after “also recorded” stand apart in the source; their conditions may differ. Read-outs that look alike come from different tables or passages of the source.

T2 sequence (P0A7D4 whole entry): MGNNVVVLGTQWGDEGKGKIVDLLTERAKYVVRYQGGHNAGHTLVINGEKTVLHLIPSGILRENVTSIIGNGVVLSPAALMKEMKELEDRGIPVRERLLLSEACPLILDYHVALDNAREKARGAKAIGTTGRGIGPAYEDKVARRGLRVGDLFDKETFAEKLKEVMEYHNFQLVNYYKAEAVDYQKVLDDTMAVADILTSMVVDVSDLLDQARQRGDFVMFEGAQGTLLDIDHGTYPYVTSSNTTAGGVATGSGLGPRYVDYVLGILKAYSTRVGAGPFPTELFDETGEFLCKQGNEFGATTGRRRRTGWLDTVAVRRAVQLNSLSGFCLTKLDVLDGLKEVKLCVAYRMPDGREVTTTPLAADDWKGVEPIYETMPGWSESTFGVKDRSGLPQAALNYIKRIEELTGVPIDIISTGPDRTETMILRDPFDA
T3 sequence (P0ADR8 whole entry): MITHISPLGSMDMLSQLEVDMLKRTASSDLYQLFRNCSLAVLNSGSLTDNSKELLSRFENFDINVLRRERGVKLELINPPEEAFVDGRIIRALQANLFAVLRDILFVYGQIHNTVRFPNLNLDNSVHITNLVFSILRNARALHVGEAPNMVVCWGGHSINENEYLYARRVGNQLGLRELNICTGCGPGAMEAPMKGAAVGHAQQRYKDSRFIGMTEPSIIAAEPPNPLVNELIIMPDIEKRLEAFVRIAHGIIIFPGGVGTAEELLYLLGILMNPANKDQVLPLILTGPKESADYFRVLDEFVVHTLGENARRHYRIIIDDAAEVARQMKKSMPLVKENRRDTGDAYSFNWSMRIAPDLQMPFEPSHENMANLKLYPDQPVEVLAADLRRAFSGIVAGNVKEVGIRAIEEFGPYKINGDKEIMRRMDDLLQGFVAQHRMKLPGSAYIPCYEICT
Sequence of NadR (P27278 whole entry): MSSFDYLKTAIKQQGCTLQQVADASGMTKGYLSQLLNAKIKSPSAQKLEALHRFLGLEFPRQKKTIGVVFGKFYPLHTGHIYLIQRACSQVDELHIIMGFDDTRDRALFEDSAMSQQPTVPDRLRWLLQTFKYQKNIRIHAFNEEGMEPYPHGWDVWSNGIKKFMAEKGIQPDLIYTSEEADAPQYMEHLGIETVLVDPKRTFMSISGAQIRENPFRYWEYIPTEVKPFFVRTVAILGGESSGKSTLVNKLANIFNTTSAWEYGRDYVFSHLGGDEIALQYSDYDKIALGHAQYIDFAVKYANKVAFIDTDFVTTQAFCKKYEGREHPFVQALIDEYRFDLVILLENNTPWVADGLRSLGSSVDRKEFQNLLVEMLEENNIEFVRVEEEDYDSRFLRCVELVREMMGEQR
Sequence of TrmE (P25522 whole entry): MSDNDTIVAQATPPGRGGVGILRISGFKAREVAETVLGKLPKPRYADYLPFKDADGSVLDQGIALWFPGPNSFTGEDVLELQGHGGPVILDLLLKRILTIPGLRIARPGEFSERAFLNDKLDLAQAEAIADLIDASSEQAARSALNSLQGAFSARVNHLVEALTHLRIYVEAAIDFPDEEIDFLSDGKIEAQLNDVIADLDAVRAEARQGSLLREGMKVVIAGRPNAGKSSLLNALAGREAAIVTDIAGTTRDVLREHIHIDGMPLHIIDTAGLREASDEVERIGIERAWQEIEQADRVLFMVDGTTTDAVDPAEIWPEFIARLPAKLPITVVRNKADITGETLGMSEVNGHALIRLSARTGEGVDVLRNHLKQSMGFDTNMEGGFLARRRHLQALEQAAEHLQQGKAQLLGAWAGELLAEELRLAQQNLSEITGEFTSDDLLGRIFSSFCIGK
T1 sequence (P69503 whole entry): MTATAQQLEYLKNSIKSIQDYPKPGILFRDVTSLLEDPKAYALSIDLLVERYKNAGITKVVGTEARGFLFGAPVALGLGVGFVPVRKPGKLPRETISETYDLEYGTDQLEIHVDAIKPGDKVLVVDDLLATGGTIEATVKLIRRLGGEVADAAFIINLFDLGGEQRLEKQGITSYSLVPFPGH
Sequence of MutT (P08337 whole entry): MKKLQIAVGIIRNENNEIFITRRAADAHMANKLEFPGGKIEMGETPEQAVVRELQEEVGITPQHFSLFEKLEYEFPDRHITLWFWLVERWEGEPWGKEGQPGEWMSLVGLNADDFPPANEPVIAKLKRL
Sequence of PhoA (P00634 22-471): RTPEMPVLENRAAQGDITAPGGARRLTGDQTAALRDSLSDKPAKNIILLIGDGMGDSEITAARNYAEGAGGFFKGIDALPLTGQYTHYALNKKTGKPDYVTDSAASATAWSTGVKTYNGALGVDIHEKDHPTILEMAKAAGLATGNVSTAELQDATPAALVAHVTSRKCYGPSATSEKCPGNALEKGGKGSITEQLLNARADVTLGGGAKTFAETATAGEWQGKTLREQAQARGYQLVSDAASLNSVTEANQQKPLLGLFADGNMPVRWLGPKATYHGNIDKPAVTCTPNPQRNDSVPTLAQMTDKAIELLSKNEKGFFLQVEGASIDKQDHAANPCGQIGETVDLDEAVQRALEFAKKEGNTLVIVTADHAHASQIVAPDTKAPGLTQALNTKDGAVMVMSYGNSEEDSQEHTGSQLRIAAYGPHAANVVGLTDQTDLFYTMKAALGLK
T4 sequence (P77788 whole entry): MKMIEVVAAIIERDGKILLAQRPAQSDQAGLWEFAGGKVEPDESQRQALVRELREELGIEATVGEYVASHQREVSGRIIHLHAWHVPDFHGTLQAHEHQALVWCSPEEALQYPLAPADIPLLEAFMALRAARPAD
Sequence of Hpt (P0A9M2 whole entry): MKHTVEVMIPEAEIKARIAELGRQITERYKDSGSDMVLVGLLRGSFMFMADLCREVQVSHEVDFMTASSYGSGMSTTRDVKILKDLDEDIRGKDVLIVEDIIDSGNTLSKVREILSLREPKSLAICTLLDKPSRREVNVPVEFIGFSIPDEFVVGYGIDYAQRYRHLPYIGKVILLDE
Sequence of Gpt (P0A9M5 whole entry): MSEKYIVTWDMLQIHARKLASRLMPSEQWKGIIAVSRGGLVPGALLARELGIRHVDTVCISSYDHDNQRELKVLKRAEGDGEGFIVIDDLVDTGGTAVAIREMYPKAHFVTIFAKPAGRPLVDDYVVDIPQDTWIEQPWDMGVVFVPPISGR
Protocol for Gpt: The mixtures were incubated for 5 min at RT before spotting of 2 µl of the reaction mixtures onto nitrocellulose membranes. […] For competition assays, purified proteins at the specified concentrations were incubated with 2 nM [α-^32P]ppGpp or [α-^32P]pppGpp in the presence of 100 μM competitor nucleotides in binding buffer B. The reaction mixtures were incubated for 5 min at RT, 2 µl was spotted onto nitrocellulose membranes, and the values corresponding to the bound fractions were determined.
Protocol for Hpt: as §4

In the case of (p)ppGpp, the “binding to Apt” value on Apt [1] is on record as “no significant binding”. Also, the “binding to PurA” value on PurA [2] is “no specific binding; also recorded: does not significantly bind”. Also, at YgdH [3], the “binding to purified YgdH” value is “not able to significantly bind”. The “competition for bound [α-32P]ppGpp on Gpt” value on Gpt was “partially outcompete”. Also, at Hpt, the “competition for bound [α-32P]ppGpp on Hpt” value is recorded as “partially outcompete”. For the same substance, on YgdH [4], the “competition for (p)ppGpp binding to YgdH” value is recorded as “could outcompete”. Moreover, the “cleavage by MutT” value on MutT is “Cleavage of (p)ppGpp into pGp”. At NudG, the “cleavage by NudG” value was “Cleavage of (p)ppGpp into pGp”. At TrmE, the “cleavage by TrmE” value is “some degradation; also recorded: Cleavage of (p)ppGpp into ppGp/pGpp”. Also, the “cleavage by NadR” value on NadR was “some degradation; also recorded: Cleavage of (p)ppGpp into ppGp/pGpp”. In addition, the “cleavage by PhoA” value at PhoA is “Non-specific cleavage of (p)ppGpp into (p)pi”. Besides, the “cleavage by UshA” value on UshA was “Non-specific cleavage of (p)ppGpp into (p)pi”. Further, the “degradation by YgdH” value on YgdH [5] is “not degraded”. Moreover, the half-inhibitory concentration (IC50) on Apt [6] is 1500 µM; in the test with DnaG [8] it was 200 µM; with DnaG [9], 500 µM; in the test with RNAP /DksA it was 15 µM. The Ki at GuaB was 30 to 50 µM; at PurA [7] (ref Table S1 (5)), 140 µM; at PurA [7] (ref Table S1 (6)), 50 µM; at YybT /GdpP (ref Table S1 (21)), 36 µM; at YybT /GdpP (ref Table S1 (22)), 130 µM. The “effect on RelA activity” value in the test with RelA was “Synthesis of and stimulated by (p)ppGpp; (16)”.
